# Experiment: Cell viability measurement (MTS), Calu-3 cells
# Type: cell-based
# Conditions: human
# Experimental: Experimental Example 3: Cell Viability Measurement
# Vero cell line (VERO01WCB-1201, Ministry of Food and Drug Safety, Republic of Korea), Calu-3 cell line (KCLB #30055, Korea Cell Line Bank (KCLB), Republic of Korea), CellTiter 96® AQueous One Solution Cell Proliferation Assay kit (Promega, cat. #G3582), and Infinite M200 microplate reader (Tecan).
# Calu-3 cells were cultured at 37 °C and 5% CO2 in MEM medium supplemented with 10% fetal bovine serum, 2.2 g/L sodium bicarbonate, 1% 100 units/mL penicillin, and 100 μg/mL streptomycin.
# Vero cells or Calu-3 cells were seeded in 96-well microplates and cultured for 24 hours until the cell confluency reached 20%. After the incubation, compounds were treated in DMSO at concentrations (1, 3, and 10 μM) to reach 0.5% v/v in each well, and reacted at 37 °C for 48 hours. Into each well of the incubated 96-well microplate, 3-(4,5-dimethylthiazol-2-yl)-5-(3-carboxymethoxyphenyl)-2-(4-sulfophenyl)-2H-tetrazolium salt (MTS) assay solution [CellTiter 96® AQueous One Solution Cell Proliferation Assay kit (Promega)] mixed with DMEM medium at a ratio of 1:5, was dispensed at 100 μL/well and incubated at 37 °C for 1 hour. The 490 nm and 690 nm absorbance was then measured using an Infinite M200 instrument.
# The cell viability (also, referred to as cell survival rate) (%) by compound treatment was calculated using the following analysis method. The 690 nm background absorbance value was subtracted from the measured 490 nm absorbance value. Then, to obtain the cell viability of each test group, the viability of the DMSO-treated group that was not treated with the compound was set to 100% and then the relative viability 1 of each compound was calculated. Two to six repeated tests were performed to obtain the results, and the mean values of the results were categorized into the following ranges and shown in Table 5 below (A: 80% survived, B: 50-80% survived, N/A: not tested)
SMILES,"viability at 48 h, 1 µM","viability at 48 h, 3 µM","viability at 48 h, 10 µM"
"c1ccc(-c2ccc(Nc3cccc(-c4nc5ccccc5[nH]4)c3)cc2)cc1 [Example 19, N-[3-(1H-benzo[d]imidazol-2-yl)phenyl]-[1,1′-biphenyl]-4-amine]",50 to 80%,50 to 80%,–
"c1cc(Nc2ccc(-c3ccncc3)cc2)cc(-c2nc3ccccc3[nH]2)c1 [Example 33, N-[3-(1H-benzo[d]imidazol-2-yl)phenyl]-4-(pyridin-4-yl)aniline]",50 to 80%,–,–
"c1cc(Nc2ncc(-c3cccnn3)cn2)cc(-c2nc3cnccc3[nH]2)c1 [Example 49, N-(3-{1H-imidazolo[4,5-c]pyridin-2-yl}phenyl)-5-(pyridazin-3-yl)pyrimidin-2-amine]",> 80%,> 80%,> 80%
"c1cc(Nc2ncc(-c3cccnn3)cn2)cc(-c2nc3ccccc3[nH]2)c1 [Example 53, N-[3-(1H-benzo[d]imidazol-2-yl)phenyl]-5-(pyridazin-3-yl)pyrimidin-2-amine]",> 80%,50 to 80%,50 to 80%
"c1cc(Nc2ccc(-c3ccncn3)cn2)cc(-c2nc3ccccc3[nH]2)c1 [Example 68, N-[3-(1H-benzo[d]imidazol-2-yl)phenyl]-5-(pyrimidin-4-yl)pyridin-2-amine]",50 to 80%,–,–
"c1cnc(-c2ccc(Nc3cccc(-c4nc5ccccc5[nH]4)c3)nc2)nc1 [Example 69, N-(3-(1H-benzo[d]imidazol-2-yl)phenyl)-5-(pyrimidin-2-yl)pyridin-2-amine]",> 80%,–,–
"c1cc(Nc2ncc(-c3cncnc3)cn2)cc(-c2nc3ccccc3[nH]2)c1 [Example 70, N-[3-(1H-benzo[d]imidazol-2-yl)phenyl]-[5,5′-bipyrimidin]-2-amine]",> 80%,50 to 80%,–
"c1cnc(-c2cnc(Nc3cccc(-c4nc5ccccc5[nH]4)c3)nc2)nc1 [Example 71, N-[3-(1H-benzo[d]imidazol-2-yl)phenyl]-[2,5′-bipyrimidin]-2′-amine]",> 80%,50 to 80%,–
"c1ccc(-c2ccc(Nc3cccc(-c4nc5ccccc5[nH]4)c3)cn2)cc1 [Example 80, N-[3-(1H-benzo[d]imidazol-2-yl)phenyl]-6-phenyl-pyridin-3-amine]",> 80%,50 to 80%,–
"Fc1ccc2nc(-c3cccc(Nc4ccc(-c5ccccn5)cc4)c3)[nH]c2c1 [Example 92, 3-(6-fluoro-1H-benzo[d]imidazol-2-yl)-N-[4-(2-pyridyl)phenyl]aniline]",50 to 80%,–,–
"c1cc(Nc2ccc(-c3ccnnc3)cc2)cc(-c2nc3ccccc3[nH]2)c1 [Example 94, 3-(1H-benzo[d]imidazol-2-yl)-N-(4-pyridazin-4-ylphenyl)aniline]",50 to 80%,–,–
"Fc1cc2nc(-c3cccc(Nc4ccc(-c5ccncn5)cc4)c3)[nH]c2cc1F [Example 95, 3-(5,6-difluoro-1H-benzo[d]imidazol-2-yl)-N-(4-pyrimidin-4-ylphenyl)aniline]",50 to 80%,–,–
"c1cc(Nc2ccc(C3CCCCC3)cc2)cc(-c2nc3ccccc3[nH]2)c1 [Example 97, 3-(1H-benzo[d]imidazol-2-yl)-N-(4-cyclohexylphenyl)aniline]",> 80%,50 to 80%,–
"FC(F)(F)c1ccc2nc(-c3cccc(Nc4ccc(-c5ccccn5)cc4)c3)[nH]c2c1 [Example 98, N-[4-(2-pyridyl)phenyl]-3-[6-(trifluoromethyl)-1H-benzo[d]imidazol-2-yl]aniline]",50 to 80%,–,–
"Fc1cc2nc(-c3cccc(Nc4ncc(-c5cccnn5)cn4)c3)[nH]c2cc1F [Example 99, N-[3-(5,6-difluoro-1H-benzo[d]imidazol-2-yl)phenyl]-5-pyridazin-3-yl-pyrimidin-2-amine]",> 80%,> 80%,> 80%
"FC(F)(F)c1ccc2nc(-c3cccc(Nc4ccc(-c5ncccn5)cn4)c3)[nH]c2c1 [Example 100, 5-pyrimidin-2-yl-N-[3-[6-(trifluoromethyl)-1H-benzo[d]imidazol-2-yl]phenyl]pyridin-2-amine]",50 to 80%,–,–
"Cc1cccc2nc(-c3cccc(Nc4ccc(-c5cccnn5)cc4)c3)[nH]c12 [Example 101, 3-(7-methyl-1H-benzo[d]imidazol-2-yl)-N-(4-pyridazin-3-ylphenyl)aniline]",> 80%,–,–
"FC(F)(F)c1cc2[nH]c(-c3cccc(Nc4ncc(-c5cccnn5)cn4)c3)nc2cn1 [Example 103, 5-pyridazin-3-yl-N-[3-[6-(trifluoromethyl)-1H-imidazo[4,5-c]pyridin-2-yl]phenyl]pyrimidin-2-amine]",> 80%,> 80%,> 80%
"Fc1cc2[nH]c(-c3cccc(Nc4ccc(-c5cccnn5)cc4)c3)nc2cc1C(F)(F)F [Example 104, 3-[6-fluoro-5-(trifluoromethyl)-1H-benzo[d]imidazol-2-yl]-N-(4-pyridazin-3-ylphenyl)aniline]",50 to 80%,50 to 80%,–
"CC(C)(C)c1ccc2nc(-c3cccc(Nc4ccc(-c5cccnn5)cc4)c3)[nH]c2c1 [Example 107, 3-(6-tert-butyl-1H-benzo[d]imidazol-2-yl)-N-(4-pyridazin-3-ylphenyl)aniline]",> 80%,–,–
"COc1ccc2nc(-c3cccc(Nc4ncc(-c5cccnn5)cn4)c3)[nH]c2c1 [Example 108, N-[3-(6-methoxy-1H-benzo[d]imidazol-2-yl)phenyl]-5-pyridazin-3-yl-pyrimidin-2-amine]",> 80%,> 80%,> 80%
"FC(F)(F)Oc1ccc2nc(-c3cccc(Nc4ccc(-c5ccncn5)cc4)c3)[nH]c2c1 [Example 109, N-(4-pyrimidin-4-ylphenyl)-3-[6-(trifluoromethoxy)-1H-benzo[d]imidazol-2-yl]aniline]",50 to 80%,–,–
"FC(F)(F)Oc1ccc2nc(-c3cccc(Nc4ncc(-c5ccccn5)cn4)c3)[nH]c2c1 [Example 118, 5-(2-pyridyl)-N-[3-[6-(trifluoromethoxy)-1H-benzo[d]imidazol-2-yl]phenyl]pyrimidin-2-amine]",–,–,50 to 80%
"FC(F)(F)Oc1cc2nc(-c3cccc(Nc4ncc(-c5cccnn5)cn4)c3)[nH]c2cc1Cl [Example 120, N-[3-[6-chloro-5-(trifluoromethoxy)-1H-benzo[d]imidazol-2-yl]phenyl]-5-pyridazin-3-yl-pyrimidin-2-amine]",–,–,> 80%
"Fc1cc2[nH]c(-c3cccc(Nc4ncc(-c5ccccn5)cn4)c3)nc2cn1 [Example 286, N-(3-(6-fluoro-1H-imidazo[4,5-c]pyridin-2-yl)phenyl)-5-(pyridin-2-yl)pyrimidin-2-amine]",–,–,> 80%
"FC(F)(F)Oc1ccc2nc(-c3cccc(Nc4ncc(-c5cccnn5)cn4)c3)[nH]c2c1 [Example 295, 5-(pyridazin-3-yl)-N-(3-(6-(trifluoromethoxy)-1H-benzo[d]imidazol-2-yl)phenyl)pyrimidin-2-amine]",–,–,> 80%
"Fc1cc2nc(-c3cccc(Nc4cnc(-c5ccncn5)cn4)c3)[nH]c2cc1F [Example 297, N-(3-(5,6-difluoro-1H-benzo[d]imidazol-2-yl)phenyl)-5-(pyrimidin-4-yl)pyrazin-2-amine]",–,–,> 80%

# From US20260364068A1, “ANTIVIRAL USE OF HETEROARYL DERIVATIVE COMPOUND” (UIF (University Industry Foundation), Yonsei University, priority 2022, published 2026)
